This is an account of results in patent US9464064B2, “HCV helicase inhibitors and methods of use thereof” (University of Kansas, priority 2011, dated 2016).

This test addresses T1, HCV NS3 helicase NS3h_1b(con1) (Hepatitis C virus genotype 1b, UniProt Q9WMX2).
T1 construct: truncated C-terminally His-tagged NS3 proteins lacking the N-terminal protease, called NS3h; His-tag (C); made in house
Briefly: MBHA screen of NCI mechanistic set library at 20 μM (percent inhibition, compound interference). The class given is biochemical. Conditions: compounds at 20 μM; for Inh. (%) (Inhibition): calculated from Equation 1. Summed up: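 Molecular beacon-based DNA unwinding assay; compounds screened at 20 μM in triplicate, with DMSO-only negative and 500 nM dT20 positive controls. Fluorescence (ex 643/em 670 nm) was read before and 30 min after adding ATP to 1 mM. Percent inhibition came from the change relative to DMSO controls; interference from pre-ATP fluorescence versus DMSO controls.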

Where [1] appears, read: MBHA with DNA substrate, assay interference calculated with Equation 2.
Setting [2] is: assay interference calculated with Equation 2 (fluorescence vs DMSO-only controls before ATP).

SMILES strings stand for the structures.

T1 sequence (Q9WMX2 1192-1657): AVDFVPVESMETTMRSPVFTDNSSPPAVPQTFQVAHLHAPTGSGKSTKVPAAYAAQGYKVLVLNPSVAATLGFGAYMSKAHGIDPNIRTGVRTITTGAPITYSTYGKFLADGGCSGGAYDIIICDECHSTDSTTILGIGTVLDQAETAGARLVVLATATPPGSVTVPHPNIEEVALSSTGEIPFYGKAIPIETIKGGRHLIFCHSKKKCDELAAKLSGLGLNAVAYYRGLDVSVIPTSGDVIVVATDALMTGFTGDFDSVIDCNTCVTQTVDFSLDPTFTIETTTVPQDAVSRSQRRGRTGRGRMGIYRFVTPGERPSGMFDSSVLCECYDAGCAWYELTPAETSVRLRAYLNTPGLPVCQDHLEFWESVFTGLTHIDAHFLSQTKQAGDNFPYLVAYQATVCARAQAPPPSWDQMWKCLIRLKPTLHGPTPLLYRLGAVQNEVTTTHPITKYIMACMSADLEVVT

With `CCN(CC)CCNc1ccc(CO)c2sc3ccccc3c(=O)c12` [Compound 142982], under setting [1], the “Int.* (Ratio) (Interference)” value is 0.75 Ratio. In addition, for the setting “MBHA with DNA substrate”, the “Inh. (%) (Inhibition)” value is 53.1%.

As to `Cl.NC(=O)c1cn(C2OC(CO)C(O)C2O)c2ncnc(N)c12` (stereo not shown) [Compound 143648], for the setting “MBHA with a DNA substrate”, the “Inh. (%) (Inhibition)” value is given as −4.1%. For the same compound, the “Int.* (Ratio) (Interference)” value under setting [2] is on record as 0.99 Ratio.

For `C=C1C(=O)OCC2C(C(=O)O)=CC3C(C)C(C)=CC123` (stereo not shown) [Compound 145150], under setting [1], the “Int.* (Ratio) (Interference)” value was 1.12 Ratio. In addition, the “Inh. (%) (Inhibition)” value (MBHA with DNA substrate) is −11.3%.

`CC(C)(C)CC(C)(C)NCC(O)COc1ccc(C(C)(C)c2ccc(OCC(O)CNC(C)(C)CC(C)(C)C)cc2)cc1.Cl` (stereo not shown) [Compound 145366]: the “Int.* (Ratio) (Interference)” value under setting [1] is given as 0.53 Ratio. For the same compound, the “Inh. (%) (Inhibition)” value (MBHA with DNA substrate) was 33.1%.

In the case of `O=C1NC(c2cccc3ccccc23)Nc2ccccc21` (stereo not shown) [Compound 145669], the “Int.* (Ratio) (Interference)” value under setting [1] is 1.14 Ratio. Moreover, where the note is “MBHA with DNA substrate”, the “Inh. (%) (Inhibition)” value is given as 14.8%.

Regarding `O=c1cnn(C2OC(CO)C(O)C2O)c(=S)[nH]1` (stereo not shown) [Compound 146268], the “Int.* (Ratio) (Interference)” value under setting [1] is 1.15 Ratio. Besides, the “Inh. (%) (Inhibition)” value (MBHA with DNA substrate) is 0.2%.

As for `COc1cc2c[n+](C)c3c4cc5c(cc4ccc3c2cc1OC)OCO5` [Compound 146397], the “Int.* (Ratio) (Interference)” value under setting [1] was 0.67 Ratio. In addition, the “Inh. (%) (Inhibition)” value (MBHA with DNA substrate) was 34.3%.

For the compound `O=c1[nH]c(=O)n(C2OC(CO)C(O)C2O)cc1F` (stereo not shown) [Compound 146604], the “Int.* (Ratio) (Interference)” value under setting [1] is recorded as 1.12 Ratio. Besides, the “Inh. (%) (Inhibition)” value (MBHA with DNA substrate) is 6.1%.

In the case of `COc1ccc(C[C@@H]2NC[C@@H](O)[C@@H]2OC(C)=O)cc1.Cl` [Compound 147340], the “Inh. (%) (Inhibition)” value (MBHA with a DNA substrate) was −5.2%. In addition, the “Int.* (Ratio) (Interference)” value under setting [2] is 1.01 Ratio.

As for `O=c1[nH]c(=O)n(C2CCCO2)cc1F` (stereo not shown) [Compound 148958], under setting [1], the “Int.* (Ratio) (Interference)” value is 0.99 Ratio. In addition, the “Inh. (%) (Inhibition)” value (MBHA with DNA substrate) is on record as −8.9%.

For the compound `COc1cc(NC(C)CCCN)c2ncccc2c1.O=P(O)(O)O.O=P(O)(O)O` (stereo not shown) [Compound 149765], the “Int.* (Ratio) (Interference)” value under setting [1] was 0.94 Ratio. Moreover, under “MBHA with DNA substrate”, the “Inh. (%) (Inhibition)” value is given as 13.2%.

On to `COc1cc2cc(c1Cl)N(C)C(=O)C[C@H](OC(=O)[C@H](C)N(C)C(C)=O)[C@]1(C)O[C@H]1[C@H](C)[C@@H]1C[C@@](O)(NC(=O)O1)[C@H](OC)/C=C/C=C(\C)C2` [Compound 153858], for which the “Int.* (Ratio) (Interference)” value under setting [1] is recorded as 0.95 Ratio. Further, the “Inh. (%) (Inhibition)” value (MBHA with DNA substrate) is 0.3%.

Turning to `COC(=O)Nc1nc2ccc(Br)cc2[nH]1` [Compound 154754], the “Inh. (%) (Inhibition)” value (MBHA with a DNA substrate) was 7.6%. The “Int.* (Ratio) (Interference)” value under setting [2] is on record as 0.91 Ratio.

On to `COc1cc2cc3c4cc(OC)c(OC)cc4cc[n+]3c(C)c2cc1OC.O=C(O)CS(=O)(=O)[O-]` [Compound 154890], for which, under setting [1], the “Int.* (Ratio) (Interference)” value was 0.29 Ratio. The “Inh. (%) (Inhibition)” value (MBHA with DNA substrate) was 79.4%.

`N#CC1CC(c2ccccc2)Nc2cc(Cl)ccc2N1` (stereo not shown) [Compound 155595]: the “Int.* (Ratio) (Interference)” value under setting [1] is listed as 1.17 Ratio. For the same compound, the “Inh. (%) (Inhibition)” value (MBHA with DNA substrate) is 2.3%.

Take `COC(=O)[C@@H]1[C@H](O)[C@H](C)[C@H](O)[C@H](C)/C=C\C=C(/C)C(=O)Nc2c(C)c(OC(C)=O)c3c(c2O)C(=O)C(C)=C2OCOC(=C23)/C(C)=C/[C@@](C)(O)[C@H](O)[C@@H](C)[C@H]1OC(C)=O` [Compound 156215]: where the note is “MBHA with a DNA substrate”, the “Inh. (%) (Inhibition)” value is −23.4%. Besides, under setting [2], the “Int.* (Ratio) (Interference)” value was 1.02 Ratio.

Consider `CC(=O)OCc1cc(=O)n(C)c2c3c4c(cc12)c(C)cc(=O)n4CO3` [Compound 157004], for which, where the note is “MBHA with a DNA substrate”, the “Inh. (%) (Inhibition)” value is 7.1%. Under setting [2], the “Int.* (Ratio) (Interference)” value is recorded as 1.11 Ratio.

Regarding `CCN(CC)CCCC(C)Nc1ccnc(/C=C/c2ccc(Cl)cc2)c1` (stereo not shown) [Compound 157389], the “Inh. (%) (Inhibition)” value (MBHA with a DNA substrate) is on record as 10.6%. Under setting [2], the “Int.* (Ratio) (Interference)” value is 0.88 Ratio.

In the case of `Cc1ccc([S+](c2ccc(C)cc2)c2ccc(C)cc2)cc1` [Compound 157930], the “Inh. (%) (Inhibition)” value (MBHA with a DNA substrate) was 7.6%. Besides, the “Int.* (Ratio) (Interference)” value under setting [2] is 0.86 Ratio.

In the case of `CCOC(=O)/C=C/c1c(C)[nH]c(=O)[nH]c1=O` [Compound 159935], the “Int.* (Ratio) (Interference)” value under setting [1] is on record as 0.89 Ratio. Further, the “Inh. (%) (Inhibition)” value (MBHA with DNA substrate) is given as −0.8%.

As to `COc1ccc2cc3[n+](cc2c1OC)CCc1cc2c(cc1-3)OCO2.[Cl-]` [Compound 163088], the “Int.* (Ratio) (Interference)” value under setting [1] is listed as 0.87 Ratio. Besides, where the note is “MBHA with DNA substrate”, the “Inh. (%) (Inhibition)” value is given as 13.3%.

In the case of `Cc1c2cnccc2c(C)c2c1c1ccccc1n2CCOC(=O)c1ccccc1` [Compound 163443], the “Int.* (Ratio) (Interference)” value under setting [1] was 0.88 Ratio. Where the note is “MBHA with DNA substrate”, the “Inh. (%) (Inhibition)” value is on record as −7.6%.

`N[C@H](C(=O)O)[C@@H]1CC(Cl)=NO1` [Compound 163501]: where the note is “MBHA with a DNA substrate”, the “Inh. (%) (Inhibition)” value was 10.3%. Also, the “Int.* (Ratio) (Interference)” value under setting [2] was 0.91 Ratio.

For `CC(=O)[O][Sn]([CH2]c1ccccc1)([CH2]c1ccccc1)[CH2]c1ccccc1` [Compound 164909], the “Inh. (%) (Inhibition)” value (MBHA with a DNA substrate) is listed as −20.2%. Further, the “Int.* (Ratio) (Interference)” value under setting [2] is reported as 1.04 Ratio.

For `CCC[CH2][Sn]([CH2]CCC)([CH2]CCC)[O]c1cc(Cl)c(Cl)cc1Cl` [Compound 164914], the “Inh. (%) (Inhibition)” value (MBHA with a DNA substrate) is 11.5%. For the same compound, under setting [2], the “Int.* (Ratio) (Interference)” value was 0.91 Ratio.

For `COC(=O)[C@@]12OC[C@]34[C@H]([C@@H](O)[C@@H]1O)[C@@]1(C)CC(=O)C(O)=C(C)[C@@H]1C[C@H]3OC(=O)[C@H](OC(=O)/C=C(\C)C(C)C)[C@@H]24` [Compound 165563], under setting [1], the “Int.* (Ratio) (Interference)” value is listed as 0.95 Ratio. Further, the “Inh. (%) (Inhibition)” value (MBHA with DNA substrate) was 14.6%.

Turning to `CCSC(=O)N1c2ccc(OC)cc2C=CC1C#N` (stereo not shown) [Compound 165897], under setting [1], the “Int.* (Ratio) (Interference)” value is 1.20 Ratio. For the same compound, the “Inh. (%) (Inhibition)” value (MBHA with DNA substrate) was −14.2%.

Take `CN1CCN(CCNc2ccc(CO)c3sc4ccccc4c(=O)c23)CC1` [Compound 166381]: the “Inh. (%) (Inhibition)” value (MBHA with a DNA substrate) was 7.6%. Moreover, the “Int.* (Ratio) (Interference)” value under setting [2] is 0.82 Ratio.

Consider `Cc1cc(N)c2ccccc2[n+]1CCCCCCCCCC[n+]1c(C)cc(N)c2ccccc21.[Cl-].[Cl-]` [Compound 166454], for which the “Int.* (Ratio) (Interference)” value under setting [1] is 0.18 Ratio. Besides, the “Inh. (%) (Inhibition)” value (MBHA with DNA substrate) is 60.4%.

On to `CSc1ccc(NC(=O)CCl)cc1` [Compound 166464], for which, under setting [1], the “Int.* (Ratio) (Interference)” value was 1.00 Ratio. The “Inh. (%) (Inhibition)” value (MBHA with DNA substrate) was 3.7%.

Take `CC1C(Oc2c(-c3ccc(O)c(O)c3)oc3c(O)cc(O)cc3c2=O)OC(O)C(O)C1O` (stereo not shown) [Compound 167410]: under setting [1], the “Int.* (Ratio) (Interference)” value is given as 0.87 Ratio. In addition, the “Inh. (%) (Inhibition)” value (MBHA with DNA substrate) is listed as −13.8%.

In the case of `CCOC(=O)[C@H](CC(C)C)NC(=O)C(Cc1ccc(N(CCCl)CCCl)cc1)NC(C)=O` (stereo partly shown) [Compound 167780], under setting [1], the “Int.* (Ratio) (Interference)” value is 1.00 Ratio. Where the note is “MBHA with DNA substrate”, the “Inh. (%) (Inhibition)” value is recorded as 22.8%.

Take `CC(=O)OCCN1c2ccccc2Sc2cnccc21` [Compound 168221]: the “Int.* (Ratio) (Interference)” value under setting [1] is 0.96 Ratio. In addition, the “Inh. (%) (Inhibition)” value (MBHA with DNA substrate) is −12.6%.

Turning to `Cc1cc2nc(C=C(C(F)(F)F)C(F)(F)F)oc2cc1C` [Compound 168415], under setting [1], the “Int.* (Ratio) (Interference)” value is reported as 0.95 Ratio. Moreover, under “MBHA with DNA substrate”, the “Inh. (%) (Inhibition)” value is recorded as 13.3%.

Consider `CCC[CH2][Pb]([Cl])([CH2]CCC)[CH2]CCC` [Compound 168597], for which the “Int.* (Ratio) (Interference)” value under setting [1] is listed as 0.98 Ratio. The “Inh. (%) (Inhibition)” value (MBHA with DNA substrate) is recorded as 2.6%.
